Measurements as given in patent US11319601B2, “Cell based assay” (Medical Diagnostic Laboratories, L.L.C., priority 2017, dated 2022).
“Also recorded” adds a separate entry of the source.

Key:
[1] = target: T1, P780ins HER2 receptor (Homo sapiens, UniProt P04626, INS780GSP); test: HER2 reporter cells transfected with linear expression cassette of P780ins HER2, all-in-one method; format: cell-based; conditions: all-in-one method
T1 construct: expressed in transfected cells; host or cells: HER2 reporter cells (clone #1)
From the text: P780ins corresponds to an insertion mutation of HER2, which adds 3 amino acids (GSP) after the amino acid position of […] (Proline—P). In order to functionally characterize this mutation, PCR-mediated overlapping extension was employed to construct linear expression cassette of HER2 carrying this insertion. The linear expression cassette of mutant HER2 DNA was first transfected into the reporter cells followed by treatment with NRG1 and its inhibitors using the “all-in-one” method. The luciferase reporter activity was measured 24 hours post-transfection.

[2] = target: T2, T862A HER2 receptor (Homo sapiens, UniProt P04626, T862A); test: HER2 reporter cells transfected with linear expression cassette of T862A HER2, all-in-one method; format: cell-based
T2 construct: expressed in transfected cells; host or cells: HER2 reporter cells (clone #1)
From the text: T862A corresponds to a missense mutation of HER2, which changes Threonine (T) into Alanine (A) at amino acid position of 862. In order to functionally characterize this mutation, PCR-mediated overlapping extension was employed to construct a linear expression cassette of HER2 carrying this mutation. The linear expression cassette of mutant HER2 DNA was transfected into the reporter cells followed by treatment with NRG1 and its inhibitors using the “all-in-one” method. The luciferase reporter activity was measured 24 hours post-transfection.

[3] = system: HER1, HER2 and HER3 receptors; test: ERK-Luc, JNK-Luc and NFkB-Luc reporters in HEK293 cells co-transfected with HER1, HER2 and HER3, treated with ligand; format: cell-based, human; conditions: ligand 6 hours; HER1, HER2, HER3 co-transfected HEK293
Experimental: In order to identify reporters to measure the activity of HER2 receptor, expression plasmids of HER1, HER2 and HER3 were co-transfected with different reporter constructs, including ERK-Luc, JNK-Luc and NFkB-Luc, into the HEK293 cells. After 24 hours, the transfected cells were treated with either EGF (HER1 receptor ligand) or NRG1 (HER3 receptor ligand) for 6 hours. The luciferase reporter activity of the transfected cells was measured by Nano-Glo® Luciferase Assay (Promega). […] JNK-Luc reporter was activated when the transfected cells were treated with either HER1 or HER3 ligand (FIG. 11B).
(§1) For cell transfection experiments, HEK293 cells (ATCC) were plated at density of 4-8×10^4 cells per well (96-well plates) or 1-2×10^4 cells per well (384-well plates) in phenol red-free MEM containing 10% FBS and antibiotics. Either DNA plasmid or linear DNA was mixed with TransIT-293 transfection reagent (Mirus Bio LLC). Once cells were trypsinized, DNA transfection mix was added. The cells were then incubated for 24 or 48 hours.

[4] = system: HER2 and HER3 receptors; test: ERK-Luc / JNK-Luc / 6×JNK-Luc reporters in HEK293 cells with HER3 and HER2, treated with NRG1; format: cell-based, human; conditions: HER3 plus wild-type or kinase-dead HER2; HEK293
Experimental: In order to characterize the specificity of activation of ERK-Luc and JNK-Luc reporters upon treatment of HER3 ligand, ERK-Luc or JNK-Luc was co-transfected with expression plasmids of HER3 and wild-type or kinase-dead HER2 receptors into the HEK293 cells. After 24 hours, the transfected cells were treated with NRG1 (HER3 receptor ligand). The luciferase reporter activity of the transfected cells was measured by Nano-Glo® Luciferase Assay (Promega). In FIG. 13A, no difference in ERK-Luc reporter activity was found between the cells transfected with wild-type HER2 and kinase-dead HER2 after the treatment of NRG1. […] However, the activity of JNK-Luc reporter was reduced in the cells transfected with kinase-dead HER2 compared to the cells transfected with wild-type HER2 (FIG. 13B).
In order to examine the dose response of NRG1 in the activation of JNK-Luc reporters, JNK-Luc with expression plasmids of HER3 and wild-type HER2 receptors were co-transfected into the HEK293 cells. After 24 hours, the transfected cells were treated with a serial dilution of NRG1 (HER3 receptor ligand) for 6 hours. The luciferase reporter activity of the transfected cells was measured by Nano-Glo® Luciferase Assay (Promega).
In the previous example, the JNK-Luc reporter contained 3 copies of AP-1 binding site. We observed around 2.6 fold induction of reporter activity when the transfected cells were treated with 100 ng/ml of NRG1 (FIG. 14). In order to enhance the activation of reporter activity, the AP-1 binding site was increased from 3 copies to 6 copies. 6×JNK-Luc was co-transfected with expression plasmids of HER3 and wild-type HER2 receptors into the HEK293 cells. After 24 hours, the transfected cells were treated with 100 ng/ml of NRG1 (HER3 receptor ligand) for 6 hours. The luciferase reporter activity of the transfected cells was measured by Nano-Glo® Luciferase Assay (Promega). In FIG. 15, the 6×JNK-Luc reporter was activated by the treatment of NRG1 only when both HER2 and HER3 receptors were expressed (FIG. 15). Approximately a 4.2 fold induction of reporter activity was found.
as §1

[5] = target: T3, wild-type HER2 receptor (Homo sapiens, UniProt P04626); test: 6×JNK-Luc reporter in HEK293 DKO #27 cells transfected with HER2 and HER3 expression plasmids; format: cell-based; conditions: 6 hours
T3 construct: expressed in transfected cells
Experimental: In example 4, the generation double knockout cells (HEK293 DKO #27) of HER1 and HER2 receptors was described. No protein expression of HER1 and HER2 receptors was detected by immunoblot assays. In order to characterize whether these cells are desirable for use in the assay of the invention, 6×JNK-Luc was co-transfected with expression plasmids of HER3 and wild-type HER2 receptors. After 24 hours, the transfected cells were treated with a serial dilution of NRG1 (HER3 receptor ligand) for 6 hours. The luciferase reporter activity of the transfected cells was measured by Nano-Glo® Luciferase Assay (Promega).
In order to validate the requirement of HER2 receptor in the activation of 6×JNK-Luc reporter in response to NRG1 treatment, the DKO #27 cells were transfected with the wild-type HER2 and HER3 expression plasmids followed by treatment of HER2 inhibitors for 6 hours. The luciferase reporter activity of the treated cells was measured by Nano-Glo® Luciferase Assay (Promega). […]
In order to validate that this 6×JNK-Luc reporters has the capacity of measuring HER2 receptor activity, the reporters were co-transfected with expression plasmids of HER3 and wild-type, constitutively active or kinase-dead HER2 receptors into the DKO #27 cells. […] The luciferase reporter activity of the transfected cells was measured by Nano-Glo® Luciferase Assay (Promega). […]

For “NRG1: neuregulin-1, HER3 receptor ligand”, the “response of mutant HER2 reporter activity to ligand” value [1] was “independent”, the “response of mutant HER2 reporter activity to ligand” value [2] was “dose-dependent manner” and the ERK-Luc reporter activation [3] was “activated”. The JNK-Luc reporter activation [3] was “activated”, the NFkB-Luc reporter activation [3] was “no activation” and the ERK-Luc reporter activation [4] was “effectively activated”. For the same substance, the “6×JNK-Luc reporter activation by ligand” value [5] was “dose dependent activation; also recorded: activated”.
